Entries after “also recorded” stand apart in the source; their conditions may differ.
Columns and labels:
[1] = system: primary cortical cultures (PCCs); assay: Lactate dehydrogenase (LDH) release rate analysis, H2O2-treated PCCs; format: cell-based, C57BL/6 mice
Experimental: H2O2 can cause an oxidative damage to cells and a destruction of the cell membrane, and consequently the LDH is released into medium. For that reason, the lower rate of the LDH released into the culture medium is represented the fewer damaged cells and better cell protection effect of sample.
(§1) Test cells are primary cortical cultures (PCCs) in this example. The PCCs are prepared from cerebral cortexes of gestation day 17 embryos from C57BL/6 mice as described previously (Cell Death Differ 2008; 15: 143-151). The PCCs are maintained under serum-free conditions in neurobasal medium (Invitrogen), supplemented with B-27 supplement (2%; invitrogen), glutamine (0.5 mM; Sigma Aldrich), glutamate ([…]; Sigma Aldrich), penicillin (100 U/ml) and streptomycin ([…]; Invitrogen). At 4 days in vitro, half of the medium is removed and replaced with fresh medium without glutamate. The cultures are maintained in a humidified incubator at 37° C. with 5% CO2. At 7 days in vitro, the PCCs are used for experimentation.
The PCCs are seeded in a 24-well plate and are allowed to stand for 20 minutes. […] The PCCs are maintained at 37° C. in a humidified atmosphere of 5% CO2 for 24 hours. After incubation, the culture medium is collected and washed twice with phosphate buffered saline (PBS), and then are analyzed the LDH activity in the culture medium by using LDH Cytotoxicity Detection Kit (TaKaRa Bio Laboratories, Japan) to calculate the percentage cytotoxicity, which is represented the situation of cells damage, of the PCCs. The lower percentage cytotoxicity presents the lower LDH activity detected and less severe of cells damages, which indicates the better cell protection effect of the sample. The LDH activity is measured by a colorimetry. After a reaction between enzyme and particular substrate, an absorbance of the reaction solution and the LDH activity is linearly correlated. The LDH activity (U/10^−3 L) is calculated by a reduced optical density slope at a wavelength of 340 nm within three minutes. A lactate dehydrogenase activity unit is defined as a catalytic consumption of […] NADH per minute.

HIF-1α [2] = assay: HIF-1α expressions in the brains of the ischemic rats, Western blot; format: in vivo, Sprague-Dawley (SD) rats
From the text: (§2) The ischemic rats are induced by an ischemia-reperfusion model to simulate transient focal cerebral ischemia in rats. Test animals are male Sprague-Dawley (SD) rats weighing 250-300 g. The rats are anesthetized with chloral hydrate (0.4 g/kg IP) and subjected to cerebral ischemia. The ischemia-reperfusion model is induced by ligations of bilateral common carotid arteries (CCAs) and a right middle cerebral artery (MCA). The bilateral CCAs are clamped with non-traumatic arterial clips, and the right MCA is ligated with an 10-0 nylon suture. After 90 minutes ischemia, the suture on the MCA and the arterial clips on CCAs are removed to allow reperfusion. Core body temperature is monitored with a thermistor probe (Hewlett-Packard Model 21090A probe, Hewlett-Packard Company, Andover, Mass.), and maintained at 37° C. with a heating pad during anesthesia. After recovery from anesthesia, rat body temperature is maintained at 37° C. with a heat lamp.
The ischemia-reperfusion model is established as described above. The ischemic rats are injected intraperitonealy with different dosages of the Compound 1 (0.1 mg/kg, 1 mg/kg and 10 mg/kg) at 4 hours after MCA ligation for three consecutive days. Sham rats undergo same protocol with the exception of the ligation of the bilateral CCAs and the right MCA. The rats only injected a vehicle are used as the control. The ischemic rats are decapitated at 4 hours, 16 hours, 24 hours, 36 hours and 72 hours after the Compound 1 injection. The Bmi-1 expressions and the HIF-1α expressions of the ischemic rats are detected by the Western blot analysis.
The ischemic rats are further treated with 100 mg/kg of the 2-ME2 or stereotaxic injected with the LV-Bmi-1-sh or the LV-control-sh to inhibit the HIF-1α expressions and the Bmi-1 expressions, and then the ischemic rats are treated with 1 mg/kg of the Compound 1. The effect of the administration of the Compound 1 on the Bmi-1 expressions in the brains of the ischemic rats which are reduced the Bmi-1 expressions or the HIF-1α expressions are detected by the Western blot analysis.

ischemic rats = assay: Locomotor activity test; format: in vivo, Sprague-Dawley (SD) rats; conditions: 1 mg/kg, vs control group, FIGS. 19B to 19D
From the text: as §2, with “After recovery from anesthesia, rat body temperature is maintained at 37° C. with a heat lamp.” left out
The locomotor activity test is measured for about 2 hours using VersaMax Animal Activity Monitoring System (Accuscan Instruments), which contains 16 horizontal infrared sensors and 8 vertical infrared sensors. The vertical sensors are situated 10 cm above the chamber floor and the locomotor activity is quantified by a number of a beam broken by the rat's movement in the chamber. Three vertical-movement parameters are measured: (i) vertical activity (ii) vertical time (iii) number of vertical movements by the manufacturer's instruction.

Bmi-1 = Bmi-1 expressions of the brains of 2-ME2 treated ischemic rats, immunohistochemistry and Western blot; format: in vivo, Sprague-Dawley (SD) rats; conditions: 2-ME2 50, 100 or 150 mg/kg intraperitoneal, dose-dependent manner, FIGS. 5B, 5C
From the text: as §2
2-ME2 (Sigma Aldrich, USA) is dissolved in DMSO to obtain a 10 mmol/L solution. For in vivo experiments, the whole procedure is performed as previously described (Clin Cancer Res 2004, 10: 8665-8673). […]

HIF-1α [3] = assay: HIF-1α expressions in the PCCs with hypoxic treatment, Western blot; format: cell-based, C57BL/6 mice; conditions: 1 μM 2-ME2 for 16 hours, FIG. 6C
Experimental: as §1
One group of the PCCs is transduced with LV-HIF-1α-sh (sc-35562-V, Santa Cruz Biotechnology) and LV-control-sh (sc-108080, Santa Cruz Biotechnology) by a lenti-viral infection to reduce the HIF-1α expressions. Another group of the PCCs is treated with 1 μM of 2-ME2 for 16 hours to reduce the HIF-1α expressions in the PCCs. In FIG. 6C, the HIF-1α expressions in the PCCs are decreased both in the LV-HIF-1α-sh transduced group and the 2-ME2 treated group.

Structure (SMILES): COC(=O)C1=CO[C@@H](O)[C@@H]2C(COC(=O)[C@@H](N)Cc3ccccc3)=CC[C@H]12 [Compound 1]
- LDH release rate of the PCCs treated with H2O2 ([1]; compound 0.1 μM, FIG. 1G): 30%
- LDH release rate of the PCCs treated with H2O2 ([1]; compound 100 μM, 10^-4 mol/L H2O2, 24 hours, FIG. 1F): lower LDH release rate; also recorded: reduces most LDH release rate
- concentration at which the LDH release rate of the PCCs is reduced most ([1]; tested 0.1, 1, 10 and 100 μM, FIG. 1G): 100 µM
- treatment time with the highest HIF-1α expression (HIF-1α [2]; 1 mg/kg, 4 to 72 hours after injection, FIG. 13A): 4 h
- HIF-1α expressions in the brains of the ischemic rats (HIF-1α [2]; 0.1, 1, 10 mg/kg intraperitoneal, vs control and sham rats, FIGS. 13A, 13B): significantly increases
- dosage with the highest HIF-1α expression (HIF-1α [2]; 0.1, 1, 10 mg/kg tested, 36 hours, FIG. 13B): 1 mg/kg
- locomotor activity (vertical activity, vertical time, number of vertical movements) (ischemic rats): significant improvement

Structure (SMILES): COc1cc2c(cc1O)CC[C@@H]1[C@@H]2CC[C@]2(C)[C@@H](O)CC[C@@H]12 [Compound 2-ME2, 2-Methoxyestradiol, reference compound]
- upregulated Bmi-1 immunoreactivity and protein expressions after the cerebral ischemia (Bmi-1): suppressed
- HIF-1α expressions in the PCCs (HIF-1α [3]): decreased

— patent US10035791B2, “Bicyclic compound and pharmaceutical composition thereof for treating stroke and use thereof” (China Medical University, priority 2016, dated 2018)
